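Tested at 5 concentrations; 48 h exposure; 96-well plates; endpoints linearly interpolated, else capped at highest concentration. Abbreviation: GI50, concentration required for 50% inhibition of growth. TGI: total growth inhibition.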
Assays:
Assay in all cases: growth of human tumour cells (NCI), 48 h
[1] = tested on: 786-0 renal
[2] = tested on: A498 renal
[3] = tested on: A549 NSCLC
[4] = tested on: ACHN renal
[5] = tested on: BT-549 breast
[6] = tested on: CAKI-1 renal
[7] = tested on: CCRF-CEM leukemia
[8] = tested on: COLO 205 colon
[9] = tested on: EKVX NSCLC
[10] = tested on: HCC-2998 colon
[11] = tested on: HCT-116 colon
[12] = tested on: HCT-15 colon
[13] = tested on: HL-60(TB) leukemia
[14] = tested on: HOP-62 NSCLC
[15] = tested on: HOP-92 NSCLC
[16] = tested on: HT29 colon
[17] = tested on: IGROV1 ovarian
[18] = tested on: K-562 leukemia
[19] = tested on: KM12 colon
[20] = tested on: LOX IMVI melanoma
[21] = tested on: M14 melanoma
[22] = tested on: MALME-3M melanoma
[23] = tested on: MCF7 breast
[24] = tested on: MDA-MB-231 breast
[25] = tested on: MDA-MB-435
[26] = tested on: MOLT-4 leukemia
[27] = tested on: NCI-H226 lung
[28] = tested on: NCI-H23 lung
[29] = tested on: NCI-H460 lung
[30] = tested on: NCI-H522 lung
[31] = tested on: NCI/ADR-RES ovarian
[32] = tested on: OVCAR-3 ovarian
[33] = tested on: OVCAR-4 ovarian
[34] = tested on: OVCAR-5 ovarian
[35] = tested on: OVCAR-8 ovarian
[36] = tested on: PC-3 prostate
[37] = tested on: RPMI-8226 leukemia
[38] = tested on: RXF 393 renal
[39] = tested on: SF-268 CNS
[40] = tested on: SF-295 CNS
[41] = tested on: SK-MEL-2 melanoma
[42] = tested on: SK-MEL-28 melanoma
[43] = tested on: SK-MEL-5 melanoma
[44] = tested on: SK-OV-3 ovarian
[45] = tested on: SN12C renal
[46] = tested on: SNB-19 CNS
[47] = tested on: SNB-75 CNS
[48] = tested on: SR leukemia
[49] = tested on: SW-620 colon
[50] = tested on: T-47D breast
[51] = tested on: TK-10 renal
[52] = tested on: U251 CNS
[53] = tested on: UACC-257 melanoma
[54] = tested on: UACC-62 melanoma
[55] = tested on: UO-31 renal
[56] = tested on: DU-145 prostate
[57] = tested on: SF-539 CNS

CC[C@]12C=CCN3CC[C@]4(C(=C(C(=O)OC)C1)Nc1cc(OC)c(OC(C)=O)cc14)[C@@H]32
GI50 [1]: 0.318 µM
TGI [1]: 10 µM
GI50 [2]: 0.133 µM
TGI [2]: 0.718 µM
GI50 [3]: 0.397 µM
TGI [3]: 19 µM
GI50 [4]: 0.176 µM
TGI [4]: 2.62 µM
GI50 [5]: 0.244 µM
TGI [5]: 0.674 µM
GI50 [6]: 0.503 µM
TGI [6]: 15.6 µM
GI50 [7]: 0.38 µM
TGI [7]: 1.86 µM
GI50 [8]: 0.769 µM
TGI [8]: 4.52 µM
GI50 [9]: 0.625 µM
TGI [9]: 19.3 µM
GI50 [10]: 0.416 µM
TGI [10]: 6.79 µM
GI50 [11]: 0.275 µM
TGI [11]: 1.38 µM
GI50 [12]: 0.31 µM
TGI [12]: 1.56 µM
GI50 [13]: 0.184 µM
TGI [13]: 0.654 µM
GI50 [14]: 0.4 µM
TGI [14]: 14.1 µM
GI50 [15]: 0.247 µM
TGI [15]: 10.3 µM
GI50 [16]: 1.86 µM
TGI [16]: 11 µM
GI50 [17]: 0.473 µM
TGI [17]: 20.4 µM
GI50 [18]: 0.274 µM
TGI [18]: 15.4 µM
GI50 [19]: 0.303 µM
TGI [19]: 2.64 µM
GI50 [20]: 0.254 µM
TGI [20]: 1.27 µM
GI50 [21]: 0.181 µM
TGI [21]: 0.684 µM
GI50 [22]: 1.42 µM
TGI [22]: 16.1 µM
GI50 [23]: 0.238 µM
TGI [23]: 14.4 µM
GI50 [24]: 0.389 µM
TGI [24]: 14.5 µM
GI50 [25]: 0.1 µM
TGI [25]: 0.319 µM
GI50 [26]: 0.383 µM
TGI [26]: 14.9 µM
GI50 [27]: 0.917 µM
TGI [27]: 21.9 µM
GI50 [28]: 0.395 µM
TGI [28]: 18.8 µM
GI50 [29]: 0.36 µM
TGI [29]: 11.6 µM
GI50 [30]: 0.0819 µM
TGI [30]: 1.04 µM
GI50 [31]: 0.339 µM
TGI [31]: 89.9 µM
GI50 [32]: 0.225 µM
TGI [32]: 0.602 µM
GI50 [33]: 0.446 µM
TGI [33]: 17.5 µM
GI50 [34]: 0.719 µM
TGI [34]: 16.2 µM
GI50 [35]: 0.407 µM
TGI [35]: > 100 µM
GI50 [36]: 0.384 µM
TGI [36]: 15.2 µM
GI50 [37]: 0.478 µM
TGI [37]: 12.3 µM
GI50 [38]: 0.389 µM
TGI [38]: 8.88 µM
GI50 [39]: 0.399 µM
TGI [39]: 13.2 µM
GI50 [40]: 0.377 µM
TGI [40]: 14.6 µM
GI50 [41]: 0.689 µM
TGI [41]: 23 µM
GI50 [42]: 1.62 µM
TGI [42]: 12.5 µM
GI50 [43]: 0.209 µM
TGI [43]: 0.481 µM
GI50 [44]: 0.325 µM
TGI [44]: 12.5 µM
GI50 [45]: 0.53 µM
TGI [45]: 14.8 µM
GI50 [46]: 0.591 µM
TGI [46]: 21.5 µM
GI50 [47]: 0.308 µM
TGI [47]: 21 µM
GI50 [48]: 0.164 µM
TGI [48]: 11.2 µM
GI50 [49]: 0.319 µM
TGI [49]: 10.5 µM
GI50 [50]: 1.42 µM
TGI [50]: 17.8 µM
GI50 [51]: 1.02 µM
TGI [51]: 7.51 µM
GI50 [52]: 0.386 µM
TGI [52]: 12 µM
GI50 [53]: 1.97 µM
TGI [53]: 17.5 µM
GI50 [54]: 0.326 µM
TGI [54]: 3.08 µM
GI50 [55]: 0.483 µM
TGI [55]: 5.6 µM

CCCCCCCCCCCCC[N+](C)(C)Cc1ccccc1
GI50 [1]: 1.56 µM
TGI [1]: 3.07 µM
GI50 [2]: 1.44 µM
TGI [2]: 5.01 µM
GI50 [3]: 1.61 µM
TGI [3]: 3.17 µM
GI50 [4]: 3.41 µM
TGI [4]: 12.8 µM
GI50 [5]: 1.13 µM
TGI [5]: 2.42 µM
GI50 [6]: 4.99 µM
TGI [6]: 23 µM
GI50 [8]: 1.14 µM
TGI [8]: 2.45 µM
GI50 [56]: 1.42 µM
TGI [56]: 2.74 µM
GI50 [9]: 1.57 µM
TGI [9]: 4.52 µM
GI50 [11]: 0.925 µM
TGI [11]: 2.14 µM
GI50 [12]: 5.08 µM
TGI [12]: 25.4 µM
GI50 [13]: 0.68 µM
TGI [13]: 2.15 µM
GI50 [15]: 0.338 µM
TGI [15]: 1.83 µM
GI50 [16]: 0.493 µM
TGI [16]: 1.93 µM
GI50 [17]: 0.477 µM
TGI [17]: 1.82 µM
GI50 [21]: 1.04 µM
TGI [21]: 2.4 µM
GI50 [24]: 1.35 µM
TGI [24]: 2.9 µM
GI50 [31]: 18 µM
TGI [31]: 50.5 µM
GI50 [34]: 1.47 µM
TGI [34]: 2.92 µM
GI50 [36]: 0.306 µM
TGI [36]: 1.4 µM
GI50 [37]: 0.451 µM
TGI [37]: 2.52 µM
GI50 [38]: 0.385 µM
TGI [38]: 1.6 µM
GI50 [40]: 1.42 µM
TGI [40]: 2.87 µM
GI50 [57]: 1.45 µM
TGI [57]: 2.97 µM
GI50 [42]: 1.52 µM
TGI [42]: 2.89 µM
GI50 [43]: 0.874 µM
TGI [43]: 2.11 µM
GI50 [44]: 1.31 µM
TGI [44]: 2.6 µM
GI50 [45]: 1.2 µM
TGI [45]: 2.61 µM
GI50 [47]: 1.5 µM
TGI [47]: 2.97 µM
GI50 [50]: 0.336 µM
TGI [50]: 1.71 µM
GI50 [51]: 0.871 µM
TGI [51]: 2.21 µM
GI50 [53]: 1.36 µM
TGI [53]: 2.85 µM
GI50 [54]: 0.633 µM
TGI [54]: 1.95 µM
GI50 [55]: 2.05 µM
TGI [55]: 6.42 µM
